Measured values: patent US20180171411A1, “GFRalpha1 AS A BIOMARKER FOR CISPLATIN-INDUCED CHEMORESISTANCE AND METASTASIS” (THE BOARD OF REGENTS OF THE UNIVERSITY OF TEXAS SYSTEM, priority 2015, published 2018)

Experiments:
[1] = test system: GFRα1 mRNA in MG-63 and U-2 OS cells; assay: Quantitative real-time PCR of GFRα1 mRNA after cisplatin; format: cell-based, human; settings: both cell lines; dose and time dependent
Description: FIG. 1. Cisplatin induces GFRα1 expression in osteosarcoma cells. (a-c) Immunoblot analysis of osteosarcoma cell lysates with antibodies specific for GFRα1 and β-actin. (a) MG-63 and U-2 OS cells were treated with doxorubicin (5 μM), cisplatin (20 μM), or methotrexate (1 mM) for 24 hr. Immunoblot analysis of GFRα1 (left) and quantification of GFRα1 expression (right) after treatment of chemotherapeutic agents. (b) MG-63 and U-2 OS cells were treated with different concentrations of cisplatin for 24 hr. (c) MG-63 and U-2 OS cells were treated with cisplatin (20 μM) and collected at the indicated time. (d and e) Quantitative real-time PCR of GFRα1 mRNA expression after cisplatin treatment. Representative images (top) and quantitative analysis (bottom) of GFRα1 mRNA expression. The values are presented as a mean±s.d.m (n=3). ** denotes p<0.05 by t-test. (d) MG-63 and U-2 OS cells were treated with different concentrations of cisplatin for 24 hr. (e) MG-63 and U-2 OS cells were treated with cisplatin (20 μM) and collected at the indicated time.
Quantitative real-time (RT)-PCR (qPCR). Total RNA was collected and isolated from cell lines using the RNeasy system according to the manufacturer's protocol (Qiagen, Hilden, Germany). cDNA was generated from a 30 μl reaction containing total RNA (3 μg), reverse transcriptase and oligo dT primers (Promega, Madison, Wis.). […]

[2] = test system: MG-63/GFRα1 tumors; assay: MG-63/GFRα1 xenograft in BALB/c nude mice; format: in vivo; settings: CQ 60 mg/kg, cisplatin 3 mg/kg, once a week
Description: FIG. 5. GFRα1-mediated autophagy promotes chemoresistance and tumor growth in vivo. (a) BALB/c nude mice (n =40) were injected with MG-63 cells that were transfected with either control or GFRα1 expressing vector. Tumor volume was measured every 3 or 4 days. Data are shown as mean±SEM. ** p<0.05. (b) BALB/c nude mice (n=20) were injected with MG-63 cells that were transfected with either control or GFRα1 shRNA. Tumor volume was measured every 3 or 4 days. Data are shown as mean±SEM. ** p<0.05. (c) Tumors that were generated from mice injected with MG-63 cells containing GFRα1 expressing vector were directly injected with PBS, CQ, cisplatin, or cisplatin+CQ. Tumor volume was measured every 4 days. Data are shown as mean±SEM. ** p<0.05 vs PBS, CQ, or cisplatin-treated tumors. (d) Left, representative images of immunofluorescence staining of HMGB1 in a section from tumors generated from mice injected with MG-63 cells containing GFRα1 expressing vector and then treated with PBS, CQ, cisplatin, or cisplatin+CQ. Right, quantitative analysis of percentage of cytoplasmic HMGB1-positive cells in HMGB1-positive tumors. The values are represented as a mean±s.d.m. (n=3). ** denotes p<0.05 by t-test. (e) Left, representative images of TUNEL-positive cells in a section from tumors generated from mice injected with MG-63 cells containing GFRα1 expressing vector and then treated with PBS, CQ, cisplatin, or cisplatin+CQ. Right, quantitative analysis of percentage of TUNEL-positive cells in HMGB1-positive tumors. The values are represented as a mean±s.d.m. (n=3). ** denotes p<0.05 by t-test. (0 Survival rate of mice injected with MG-63 cells containing GFRα1 expressing vector and then treated with either cisplatin or cisplatin+CQ. (g) Representative images of immunohistochemical staining of GFRα1 in a section from human osteosarcoma patient before and after cisplatin treatment. (h) Representative images of immunofluorescence staining of GFRα1 and HMGB1 in a section from human osteosarcoma patient before and after cisplatin treatment.
Tumor formation in nude mice. The mice used in this study were 6-week-old female BALB/c nude mice purchased from Orient Bio Inc. (Seongnam, Korea). […] The tumor size was measured with a caliper every 3 or 4 days. […] The tumor size was measured with a caliper every 4 days. […] were calculated from caliper measurements of tumor dimensions in mm using the formula for a prolate ellipsoid: (L×W^2)/2 where L is the longer of the two-measurements.
Statistical analysis. Survival data was analyzed by the Kaplan-Meier and log-rank test with GraphPad Prism v5.04 (GraphPad Software, La Jolla Calif.). Plating efficiency (PE, %)=(Number of colonies counted/Number of cells plated)×100. […] All values are expressed as the mean±standard deviation (SD). […]

## N.N.[Cl][Pt][Cl] [cisplatin, Cis-Diamineplatinum(II) dichloride]
[1]
  level of GFRα1 mRNA: increased
[2]
  tumor progression: allowed the tumors to survive
  tumor volume compared to PBS-treated mice: decreased
